Assay: Multiple dose crossover clinical pharmacokinetic study, IR vs CR oxybutynin
Conditions: plasma

## CCNCC#CCOC(=O)C(O)(c1ccccc1)C1CCCCC1 (stereo not shown) [DESOXY]
  t1/2 life of DESOXY compared to OXY: shorter
